Test results taken from paper PMC12196348, “^99mTc-Labeled Diarylpyrazoles for Single-Emission Computer Tomography Imaging of Neurotensin Receptor-Positive Tumors: A Comparative Preclinical Study” (Pharmaceutics, 2025).
Several values for one entry are separate records, joined by “and”; a condition that tells them apart may be missing. Equal values may be shown once. Read-outs that look alike come from different tables or passages of the source.

Key:
human NTSR2 = target: T1, human NTSR2 (Homo sapiens, UniProt O95665); assay: NTSR2 competition binding, membranes of transiently transfected HEK 293T cells, [3H]NT(8-13); conditions: human NTSR2, HEK 293T membranes, [3H]NT(8-13) 0.50 nM; mean ± SEM
T1 construct: host or cells: HEK 293T cells, transient transfection
Method: (§1) Radioligand binding experiments with the NTSR1 and NTSR2 receptor subtypes were performed as described previously. […] NTSR2 binding was measured using homogenates of membranes from HEK 293T cells, which were transiently transfected with DNA encoding the human NTSR2 (cDNA Resource Center, Bloomsberg, PA, USA) using the Mirus TransIT-293 transfection reagent (Peqlab, Erlangen, Germany). […] Nonspecific binding was determined in the presence of 10 μM NT(8-13), protein concentration was determined by the method of Lowry using bovine serum albumin as a standard. A data analysis of the radioligand displacement curves was accomplished by non-linear regression analysis using the algorithms in PRISM 9.0 (GraphPad Software, San Diego, CA, USA). EC50 values derived from the resulting dose response curves were transformed into the corresponding Ki values applying the equation of Cheng and Prusoff.

[1] = tested on: NTSR1-positive HT-29 cells; assay: Competitive cellular uptake assay; assay type: cell-based; conditions: Homo sapiens, 37 °C, 1 h
Method: For the determination of the IC50 values, 8–10 concentrations of FAUC468 were used. The HT-29 cells were seeded on the day of the experiment in a 96-well-plate (~500.000 cells per well in 200 µL cell medium) and were incubated in a humidified atmosphere at 37 °C containing 5% CO2. Subsequently, the 96-well-plate was centrifuged at 850 rpm for 2 min following aspiration of the cell medium. The cells were washed with cell medium (200 µL), the plate was centrifuged at 850 rpm for 2 min, and the supernatant was aspirated. The incubation solutions (0.009–900 nM FAUC468 in 90 µL cell medium per well) and the respective radiotracer (10 µL, 100 kBq per well) were given to the wells, and the plates were incubated at 37 °C for 1 h. After the incubation time, the plate was centrifuged at 850 rpm for 2 min. The supernatant was removed, followed by two washing steps with the cell medium (200 µL) and PBS (200 µL). Sodium hydroxide solution (200 µL, 2 M, 37 °C) was added, and after 7 min, solutions of the cell homogenates were transferred into tubes, which were measured for radioactivity in a γ-counter (Wallac Wizard, Perkin Elmer, Waltham, MA, USA). […]

human NTSR1 = human NTSR1 (Homo sapiens, UniProt P30989); assay: NTSR1 competition binding, membranes of CHO cells stably expressing human NTSR1, [3H]neurotensin; conditions: [3H]neurotensin 0.50 nM, mean ± SEM ([natRe]2: ± SD, n = 2)
Method: as §1

HT-29 cells = conditions: cited from earlier work
NTSR1 = target: NTSR1; design: method as in PMID 33268796; conditions: cited from earlier work
NTSR2 = target: NTSR2; design: method as in PMID 33268796; conditions: cited from earlier work

T1 sequence (O95665 whole entry): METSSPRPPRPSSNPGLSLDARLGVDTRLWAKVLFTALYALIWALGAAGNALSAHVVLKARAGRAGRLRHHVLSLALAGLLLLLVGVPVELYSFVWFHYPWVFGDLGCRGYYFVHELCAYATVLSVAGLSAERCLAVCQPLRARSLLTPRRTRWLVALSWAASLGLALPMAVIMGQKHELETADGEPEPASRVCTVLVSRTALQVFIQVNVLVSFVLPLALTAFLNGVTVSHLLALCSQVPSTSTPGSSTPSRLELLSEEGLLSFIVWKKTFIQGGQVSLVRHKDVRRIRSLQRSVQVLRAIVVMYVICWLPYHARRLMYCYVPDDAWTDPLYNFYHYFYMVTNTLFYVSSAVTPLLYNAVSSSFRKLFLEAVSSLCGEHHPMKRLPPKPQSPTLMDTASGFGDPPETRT
Chain of human NTSR1 (P30989 whole entry): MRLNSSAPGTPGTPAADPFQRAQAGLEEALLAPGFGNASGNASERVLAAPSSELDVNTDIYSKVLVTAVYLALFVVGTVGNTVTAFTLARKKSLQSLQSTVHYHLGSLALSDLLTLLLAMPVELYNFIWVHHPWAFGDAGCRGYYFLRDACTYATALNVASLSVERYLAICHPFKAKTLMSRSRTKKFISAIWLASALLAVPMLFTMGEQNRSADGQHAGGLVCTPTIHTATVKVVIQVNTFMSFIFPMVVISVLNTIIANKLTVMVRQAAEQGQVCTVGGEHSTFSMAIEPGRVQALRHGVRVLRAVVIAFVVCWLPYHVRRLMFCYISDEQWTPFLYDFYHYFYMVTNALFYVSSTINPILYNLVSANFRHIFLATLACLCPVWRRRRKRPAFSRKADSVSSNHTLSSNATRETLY

## COc1cccc(OC)c1-c1cc(C(=O)NC2(C(=O)O)C3CC4CC(C3)CC2C4)nn1-c1ccc(-c2cn(CCCN(C)CCCNC(=O)CN3CCN(CC(=O)O)CCN(CC(=O)O)CCN(CC(=O)O)CC3)nn2)cc1C(C)C (centres unmarked) [FAUC468]
Human NTSR2
  Ki: 100 ± 3 nM
[1]; radiotracer [99mTc]1, read-out: IC50 of FAUC468 for the displacement of [99mTc]1
  IC50: 1.93 nM
[1]; radiotracer [99mTc]2, read-out: IC50 of FAUC468 for the displacement of [99mTc]2
  IC50: 3.12 nM
Human NTSR1
  Ki: 1.9 ± 0.7 nM

## COc1cccc(OC)c1-c1cc(C(=O)NC2(C(=O)O)C3CC4CC(C3)CC2C4)nn1-c1ccc(C(=O)N(C)CCCN(C)C)cc1C(C)C (centres unmarked) [SR 142948A]
HT-29 cells
  IC50: 0.32 nM

## COc1cccc(OC)c1-c1cc(C(=O)NC2(C(=O)O)C3CC4CC(C3)CC2C4)nn1-c1ccc(-c2cn(CCCN(C)CCCNC(=O)CCn3cc(CC(N)C(=O)O)nn3)nn2)cc1C(C)C (centres unmarked) [Compound 6, 2-(1-(4-(1-(3-((3-(3-(4-(2-Amino-2-carboxyethyl)-1H-1,2,3-triazol-1-yl)-propanamido)propyl)(methyl)amino)propyl)-1H-1,2,3-triazol-4-yl)-2-isopropylphenyl)-5-(2,6-dimethoxyphenyl)-1H-pyrazole-3-carboxamido)adamantane-2-carboxylic Acid]
Human NTSR2
  Ki: 85 ± 13 nM
Human NTSR1
  Ki: 0.3 nM and 0.32 nM

## COc1cccc(OC)c1-c1cc(C(=O)NC2(C(=O)O)C3CC4CC(C3)CC2C4)nn1-c1ccnc2cc(Cl)ccc12 (centres unmarked) [SR 48692]
HT-29 cells; [125I-Tyr3]NT(8-13) as radioligand
  IC50: 30 nM

## COc1cccc(OC)c1-c1cc(C(=O)NC2(C(=O)O)C3CC4CC(C3)CC2C4)nn1-c1ccc(-c2cn(CCCN(C)CCCNC(=O)c3ccc(NN)nc3)nn2)cc1C(C)C (centres unmarked) [Compound 5, 2-(5-(2,6-Dimethoxyphenyl)-1-(4-(1-(3-((3-(6-hydrazineylnicotinamido)propyl)-(methyl)amino)propyl)-1H-1,2,3-triazol-4-yl)-2-isopropylphenyl)-1H-pyrazole-3-carboxamido)-adamantane-2-carboxylic Acid]
Human NTSR2
  Ki: 270 ± 94 nM

## NTS: 13-amino-acid peptide originally isolated from bovine hypothalami
NTSR1
  Ki: 0.15 to 0.5 nM
NTSR2
  Ki: 5 to 7 nM
